Experimental data reported in patent US11255855B1, “COVID-19 spike-ACE2 binding assay for drug and antibody screening” (priority 2020, dated 2022).

Columns and labels:
[1] = tested on: SARS-COV-2-S-driven entry; assay type: cell-based, SARS-CoV-2 spike pseudovirus in A549 cells
VSV-G-driven entry = assay type: cell-based, VSV-G pseudovirus

SMILES	blocking effect on pseudovirus entry into host A549 cells [1]	inhibition of SARS-COV-2-S-driven entry (in words) [1]	inhibition of VSV-G-driven entry (in words) (VSV-G-driven entry)
COc1cc(C(=O)NS(=O)(=O)c2ccccc2C)ccc1Cc1cn(C)c2ccc(NC(=O)OC3CCCC3)cc12 [Zafirlukast]	blocking effect	inhibited	not VSV-G-driven entry
CCN1CCN(C(=O)N[C@@H](C(=O)N[C@@H]2C(=O)N3C(C(=O)O)=C(CSc4nnnn4C)CS[C@H]23)c2ccc(O)cc2)C(=O)C1=O [cefoperazone]	–	No inhibition	–
CN(C)C(=O)COC(=O)Cc1ccc(OC(=O)c2ccc(NC(=N)N)cc2)cc1 [camostat, Camostat Mesilate]	–	No inhibition	–
